Experiments:
Assay in all cases: Weeding effect in post-emergence stage (greenhouse pot spray)
Type in all cases: in vivo
Stellaria media = system: Stellaria media
From the text: (§1) The activity level criteria for plant damage (i.e., growth control rate) are as follows:
(§2) The above growth control rates are fresh weight control rates.
(§3) Experiment on weeding effect in post-emergence stage: monocotyledonous and dicotyledonous weed seeds (Descurainia sophia, Capsella bursa-pastoris, Abutilon theophrasti, Galium aparine, Stellaria media, Lithospermum arvense, rorippa indica, Alopecurus aequalis, Beckmannia syzigachne, Sclerochloa dura, Phleum paniculatum, Bromus japonicus, Aegilops tauschii, Phalaris arundinacea, Amaranthus retroflexus, Chenopodiaceae, Commelina communis, Sonchus arvensis, convolvulus arvensis, Cirsium setosum, Solanum nigrum, Acalypha australis, Digitaria sanguinalis, Echinochloa crusgalli, Setaria viridis, Setaria glauca, Leptochloa chinensis, Monochoria vaginalis, Sagittaria trifolia, Scirpus juncoides, Cyperus rotundus, Cyperus iria, Cyperus difformis, Fimbristylis, Portulaca oleracea, Xanthium sibiricum, Pharbitis nil) and major crop seeds (wheat, corn, rice, soybean, cotton, oilseed rape, millet, sorghum, potato, sesame, ricinus) were placed in plastic pots filled with soil, then covered with 0.5-2 cm of soil, allowed to grow in a good greenhouse environment. After 2 weeks of sowing, the test plants were treated in the 2 to 3 leaf stage. The tested compounds of the present invention were respectively dissolved in acetone, then added with Tween 80 and 1.5 liter/ha of emulsifiable concentrate of methyl oleate as synergist, diluted with a certain amount of water to obtain a solution with a certain concentration, and sprayed with a spray tower onto the plants. After the application, the plants were cultured for 3 weeks in the greenhouse, and then the experimental results of the weeding were counted. The doses of the used compounds were 500, 250, 125, 60, 15 g a.i./ha, and the averages were obtained by repeating for three times.

Amaranthus retroflexus = system: Amaranthus retroflexus
From the text: as §1, §2, §3

Echinochloa crusgalli = system: Echinochloa crusgalli
Summary of the method: (§4)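 Pot-grown greenhouse plants, 2-3 leaf stage; spray-tower application; formulation acetone/Tween 80 plus methyl oleate EC 1.5 liter/ha as synergist; rates 500, 250, 125, 60, 15 g a.i./ha; assessed 3 wk post-treatment as fresh weight control, n=3.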

Abutilon theophrasti = system: Abutilon theophrasti
Summary of the method: as §4

Digitaria sanguinalis = system: Digitaria sanguinalis
Summary of the method: as §4

| SMILES | Amaranthus retroflexus (activity level) (Amaranthus retroflexus; Table 2, dose 500 g a.i./ha) | Echinochloa crusgah (activity level) (Echinochloa crusgalli; Table 2, dose 500 g a.i./ha) | Abutilion theophrasti (activity level) (Abutilon theophrasti; Table 2, dose 500 g a.i./ha) | Digitaria sanguinalis (activity level) (Digitaria sanguinalis; Table 2, dose 500 g a.i./ha) | Amaranthus retroflexus (activity level) (Amaranthus retroflexus; Table 2, dose 250 g a.i./ha) | Echinochloa crusgah (activity level) (Echinochloa crusgalli; Table 2, dose 250 g a.i./ha) | Abutilion theophrasti (activity level) (Abutilon theophrasti; Table 2, dose 250 g a.i./ha) | Digitaria sanguinalis (activity level) (Digitaria sanguinalis; Table 2, dose 250 g a.i./ha) | further results |
| --- | --- | --- | --- | --- | --- | --- | --- | --- | --- |
| CCC(C)C[S+]([O-])c1c(C(F)(F)F)ccc(C(=O)Nc2nnc(C)o2)c1F (mixture of isomers) [Compound 1-29] | 5 (Level 5: growth control rate is above 85%) | 5 (Level 5: growth control rate is above 85%) | 5 (Level 5: growth control rate is above 85%) | 5 (Level 5: growth control rate is above 85%) |  |  |  |  | Stellaria media (activity level) (Stellaria media; Table 2, dose 500 g a.i./ha): 5 (Level 5: growth control rate is above 85%) |
| Cc1nnc(NC(=O)c2ccc(C(F)(F)F)c(SC(C)C)c2F)o1 [Compound 1-10] |  |  |  |  | 5 (Level 5: growth control rate is above 85%) | 5 (Level 5: growth control rate is above 85%) | 5 (Level 5: growth control rate is above 85%) |  | Stellaria media (activity level) (Stellaria media; Table 2, dose 250 g a.i./ha): 5 (Level 5: growth control rate is above 85%) |
| Cc1nnc(NC(=O)c2ccc(C(F)(F)F)c(S(=O)(=O)C(C)C)c2F)o1 [Compound 1-12] |  |  |  |  | 5 (Level 5: growth control rate is above 85%) | 5 (Level 5: growth control rate is above 85%) | 5 (Level 5: growth control rate is above 85%) | 5 (Level 5: growth control rate is above 85%) | Stellaria media (activity level) (Stellaria media; Table 2, dose 250 g a.i./ha): 5 (Level 5: growth control rate is above 85%) |
| CCCCS(=O)(=O)c1c(C(F)(F)F)ccc(C(=O)Nc2nnc(C)o2)c1F [Compound 1-15] |  |  |  |  | 5 (Level 5: growth control rate is above 85%) |  | 5 (Level 5: growth control rate is above 85%) |  | Stellaria media (activity level) (Stellaria media; Table 2, dose 250 g a.i./ha): 5 (Level 5: growth control rate is above 85%) |
| C=CCSc1c(C(F)(F)F)ccc(C(=O)Nc2nnc(C)o2)c1F [Compound 1-40] | 5 (Level 5: growth control rate is above 85%) | 5 (Level 5: growth control rate is above 85%) |  | 5 (Level 5: growth control rate is above 85%) |  |  |  |  |  |
| Cc1nnc(NC(=O)c2ccc(C(F)(F)F)c(SCC(F)F)c2F)o1 [Compound 1-49] | 5 (Level 5: growth control rate is above 85%) | 5 (Level 5: growth control rate is above 85%) | 5 (Level 5: growth control rate is above 85%) | 5 (Level 5: growth control rate is above 85%) |  |  |  |  | Stellaria media (activity level) (Stellaria media; Table 2, dose 500 g a.i./ha): 5 (Level 5: growth control rate is above 85%) |
| CC(C)=NOCCSc1c(C(F)(F)F)ccc(C(=O)Nc2nnc(C)o2)c1F [Compound 1-144] | 5 (Level 5: growth control rate is above 85%) | 5 (Level 5: growth control rate is above 85%) | 5 (Level 5: growth control rate is above 85%) |  |  |  |  |  | Stellaria media (activity level) (Stellaria media; Table 2, dose 500 g a.i./ha): 5 (Level 5: growth control rate is above 85%) |
| Cc1nnc(NC(=O)c2ccc(C(F)(F)F)c([S+]([O-])CCC3CC3)c2F)o1 (stereo not drawn) [Compound 1-395] | 5 (Level 5: growth control rate is above 85%) | 5 (Level 5: growth control rate is above 85%) | 5 (Level 5: growth control rate is above 85%) | 5 (Level 5: growth control rate is above 85%) |  |  |  |  |  |
| C#CCC[S+]([O-])c1c(C(F)(F)F)ccc(C(=O)Nc2nnc(C)o2)c1F (stereo not drawn) [Compound 1-401] |  |  |  |  | 5 (Level 5: growth control rate is above 85%) | 5 (Level 5: growth control rate is above 85%) | 5 (Level 5: growth control rate is above 85%) | 5 (Level 5: growth control rate is above 85%) |  |
| CC#CC[S+]([O-])c1c(C(F)(F)F)ccc(C(=O)Nc2nnc(C)o2)c1F (stereo not drawn) [Compound 1-402] |  |  |  |  | 5 (Level 5: growth control rate is above 85%) | 5 (Level 5: growth control rate is above 85%) | 5 (Level 5: growth control rate is above 85%) | 5 (Level 5: growth control rate is above 85%) |  |
| Cc1nnc(NC(=O)c2ccc(C(F)(F)F)c([S+]([O-])CCCF)c2F)o1 (stereo not drawn) [Compound 1-403] |  |  |  |  |  |  |  |  | Amaranthus retroflexus (activity level) (Amaranthus retroflexus; Table 2, dose 125 g a.i./ha): 5 (Level 5: growth control rate is above 85%); Echinochloa crusgah (activity level) (Echinochloa crusgalli; Table 2, dose 125 g a.i./ha): 5 (Level 5: growth control rate is above 85%); Abutilion theophrasti (activity level) (Abutilon theophrasti; Table 2, dose 125 g a.i./ha): 5 (Level 5: growth control rate is above 85%); Digitaria sanguinalis (activity level) (Digitaria sanguinalis; Table 2, dose 125 g a.i./ha): 5 (Level 5: growth control rate is above 85%) |
| Cc1nnc(NC(=O)c2ccc(C(F)(F)F)c([S+]([O-])CC(C)F)c2F)o1 (stereo not drawn) [Compound 1-404] |  |  |  |  |  |  |  |  | Amaranthus retroflexus (activity level) (Amaranthus retroflexus; Table 2, dose 125 g a.i./ha): 5 (Level 5: growth control rate is above 85%); Echinochloa crusgah (activity level) (Echinochloa crusgalli; Table 2, dose 125 g a.i./ha): 5 (Level 5: growth control rate is above 85%); Abutilion theophrasti (activity level) (Abutilon theophrasti; Table 2, dose 125 g a.i./ha): 5 (Level 5: growth control rate is above 85%); Digitaria sanguinalis (activity level) (Digitaria sanguinalis; Table 2, dose 125 g a.i./ha): 5 (Level 5: growth control rate is above 85%) |
| Cc1nnc(NC(=O)c2ccc(C(F)(F)F)c([S+]([O-])CCCC(F)(F)F)c2F)o1 (stereo not drawn) [Compound 1-411] |  |  |  |  | 5 (Level 5: growth control rate is above 85%) | 5 (Level 5: growth control rate is above 85%) | 5 (Level 5: growth control rate is above 85%) | 5 (Level 5: growth control rate is above 85%) |  |
| Cc1nnc(NC(=O)c2ccc(C(F)(F)F)c([S+]([O-])CCC(F)(F)C(F)(F)F)c2F)o1 (stereo not drawn) [Compound 1-412] |  |  |  |  | 5 (Level 5: growth control rate is above 85%) | 5 (Level 5: growth control rate is above 85%) | 5 (Level 5: growth control rate is above 85%) | 5 (Level 5: growth control rate is above 85%) |  |
| Cc1nnc(NC(=O)c2ccc(C(F)(F)F)c([S+]([O-])CCC(F)(C(F)(F)F)C(F)(F)F)c2F)o1 (stereo not drawn) [Compound 1-413] | 5 (Level 5: growth control rate is above 85%) | 5 (Level 5: growth control rate is above 85%) |  | 5 (Level 5: growth control rate is above 85%) |  |  |  |  |  |
| Cc1nnc(NC(=O)c2ccc(C(F)(F)F)c([S+]([O-])CCCCl)c2F)o1 (stereo not drawn) [Compound 1-414] |  |  |  |  | 5 (Level 5: growth control rate is above 85%) | 5 (Level 5: growth control rate is above 85%) | 5 (Level 5: growth control rate is above 85%) | 5 (Level 5: growth control rate is above 85%) |  |
| Cc1nnc(NC(=O)c2ccc(C(F)(F)F)c([S+]([O-])CCC#N)c2F)o1 (stereo not drawn) [Compound 1-427] | 5 (Level 5: growth control rate is above 85%) | 5 (Level 5: growth control rate is above 85%) | 5 (Level 5: growth control rate is above 85%) | 5 (Level 5: growth control rate is above 85%) |  |  |  |  |  |
| Cc1nnc(NC(=O)c2ccc(C(F)(F)F)c([S+]([O-])CCCC#N)c2F)o1 (stereo not drawn) [Compound 1-428] | 5 (Level 5: growth control rate is above 85%) | 5 (Level 5: growth control rate is above 85%) | 5 (Level 5: growth control rate is above 85%) | 5 (Level 5: growth control rate is above 85%) |  |  |  |  |  |

Reference: patent US20230041563A1, “N-(1,3,4-OXADIAZOL-2-YL)ARYLCARBOXAMIDES OR SALTS THEREOF, PREPARATION METHODS, HERBICIDAL COMPOSITIONS AND USES THEREOF” (priority 2018, published 2023)
